Results on one compound are retold here after ChEMBL document CHEMBL5729397, “Targeted drug rescue with novel compositions, combinations, and methods thereof” (2022).

The data set addresses Cytochrome P450 2D6 (Homo sapiens, UniProt P10635). In words: Inhibition of Dextromethorphan Metabolism: Dextromethorphan O-demethylase activity was determined in human liver microsomes. […] The incubation mixtures contained pooled human liver microsomes (final concentrations: 0.25 mg/ml), dextromethorphan, and a NADPH-generating system (1.3 mM NADP+, 3.3 mM glucose 6-phosphate, 3.3 mM MgCl2, and 0.4 U/ml glucose-6-phosphate dehydrogenase). […] All incubations were performed in triplicate, and mean values were used for analysis.

Broadly, the IC50 is the concentration that gives 50% inhibition.

Chain of Cytochrome P450 2D6 (P10635 whole entry): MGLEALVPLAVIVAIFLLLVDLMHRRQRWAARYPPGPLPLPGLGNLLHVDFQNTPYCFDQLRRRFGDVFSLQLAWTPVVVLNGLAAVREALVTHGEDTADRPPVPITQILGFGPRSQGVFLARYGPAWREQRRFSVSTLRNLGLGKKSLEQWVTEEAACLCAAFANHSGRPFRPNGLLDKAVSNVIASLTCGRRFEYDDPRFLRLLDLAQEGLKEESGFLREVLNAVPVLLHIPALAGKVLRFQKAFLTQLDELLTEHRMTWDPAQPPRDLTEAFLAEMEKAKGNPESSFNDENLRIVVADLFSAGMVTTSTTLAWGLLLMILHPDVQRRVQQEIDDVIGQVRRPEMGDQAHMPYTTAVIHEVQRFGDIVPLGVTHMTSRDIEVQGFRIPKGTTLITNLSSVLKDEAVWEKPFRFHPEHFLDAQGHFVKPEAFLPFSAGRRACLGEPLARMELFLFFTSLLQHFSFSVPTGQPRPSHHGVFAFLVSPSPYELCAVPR

For the compound `COc1ccc(CCc2ccccc2OCC(CN(C)C)OC(=O)CCC(=O)O)cc1` (stereo unspecified), the half-maximal inhibitory concentration (IC50) was 1.2 µM.
